Molecules are shown by their SMILES.

The first assay concerns the target T1, human TREK-1 (Homo sapiens, UniProt O95069).
T1 construct: expressed in transfected cells
T1 sequence (O95069 1-426): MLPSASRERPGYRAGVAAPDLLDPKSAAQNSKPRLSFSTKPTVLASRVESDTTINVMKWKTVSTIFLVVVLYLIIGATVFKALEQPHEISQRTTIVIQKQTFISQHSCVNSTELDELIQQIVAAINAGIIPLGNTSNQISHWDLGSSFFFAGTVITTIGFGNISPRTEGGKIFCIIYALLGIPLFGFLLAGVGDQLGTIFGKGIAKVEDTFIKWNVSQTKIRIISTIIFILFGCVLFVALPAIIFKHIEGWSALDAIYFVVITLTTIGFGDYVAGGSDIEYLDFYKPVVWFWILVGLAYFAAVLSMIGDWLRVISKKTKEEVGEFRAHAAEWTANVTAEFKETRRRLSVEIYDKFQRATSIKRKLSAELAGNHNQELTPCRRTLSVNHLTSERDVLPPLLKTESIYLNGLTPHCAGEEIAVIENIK
The assay is described as follows: TREK-1 Thallium (Tl+) flux assay, Method 1. The class given is cell-based. Conditions: TREK-1 Thallium (Tl+) flux assay, Method 1. In short, it runs like this:
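Readout: Thallos fluorescence ratio, taken 25 s post-thallium relative to the pre-thallium baseline average, then converted to % inhibition. Cells were CHO-K1 stably expressing human TREK-1, dye-loaded and exposed to test compound (vehicle 0.3% DMSO) for 10 min prior to thallium stimulation.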
`Cc1cc(OCc2ccccc2)ccc1NC(=O)c1c(Cl)cnn1CC1CN(C(=O)C2CCC2)CCO1` (centres unmarked) [Compound 424, N-(4-(benzyloxy)-2-methylphenyl)-4-chloro-1-((4-(cyclobutanecarbonyl)morpholin-2-yl)methyl)-1H-pyrazole-5-carboxamide] registered a 50% inhibitory concentration (IC50) of 4850 nM.

Still in this assay, the particulars now being: TREK-1 Thallium (Tl+) flux assay; no *^12 (Method 2) mark on these rows.
As to `Cc1cc(C#Cc2ccccc2)cnc1NC(=O)c1c(Cl)cnn1[C@H]1C[C@@H]2CN(C(=O)OC(C)(C)C)C[C@@H]2C1` [Compound 329, tert-butyl (3aR,5s,6aS)-5-(4-chloro-5-{[3-methyl-5-(phenylethynyl)pyridin-2-yl]carbamoyl}-1H-pyrazol-1-yl)hexahydrocyclopenta[c]pyrrole-2(1H)-carboxylate], it took 650 nM to reach half-maximal inhibition (IC50).

`CC(=O)N1C[C@H]2C[C@H](n3ncc(Cl)c3C(=O)Nc3ncc(C#Cc4ccc(F)cc4)cc3C)C[C@H]2C1` [Compound 331, 1-[(3aR,5s,6aS)-2-acetyloctahydrocyclopenta[c]pyrrol-5-yl]-4-chloro-N-{5-[(4-fluorophenyl)ethynyl]-3-methylpyridin-2-yl}-1H-pyrazole-5-carboxamide] displayed an IC50 of 660 nM.

As for `Cc1cc(C#Cc2ccc(F)cc2)cnc1NC(=O)c1c(Cl)cnn1C1CCN(C(=O)C2CC2)C1` (centres unmarked) [Compound 229, 4-chloro-1-(1-(cyclopropanecarbonyl)pyrrolidin-3-yl)-N-(5-((4-fluorophenyl)ethynyl)-3-methylpyridin-2-yl)-1H-pyrazole-5-carboxamide], the IC50 came out at 350 nM.

Molecule `O=C(Nc1ncc(C#Cc2ccc(F)cc2)cc1F)c1c(Cl)cnn1[C@@H]1CCN(C(=O)C2COCCO2)C[C@H]1F` (stereo partly drawn) [Compound 235, 1-((3R,4R)-1-(1,4-dioxane-2-carbonyl)-3-fluoropiperidin-4-yl)-4-chloro-N-(3-fluoro-5-((4-fluorophenyl)ethynyl)pyridin-2-yl)-1H-pyrazole-5-carboxamide] displayed an IC50 of 360 nM.

On to `Cc1cc(C#Cc2ccccc2)cnc1NC(=O)c1c(Cl)cnn1C[C@H]1COCCO1` [Compound 211, (S)-1-((1,4-dioxan-2-yl)methyl)-4-chloro-N-(3-methyl-5-(phenylethynyl)pyridin-2-yl)-1H-pyrazole-5-carboxamide], for which it took 320 nM to reach half-maximal inhibition (IC50).

In the case of `Cc1cc(C#Cc2ccccc2)cnc1NC(=O)c1c(Cl)cnn1C1CCOCC1` [Compound 210, 4-chloro-N-(3-methyl-5-(phenylethynyl)pyridin-2-yl)-1-(tetrahydro-2H-pyran-4-yl)-1H-pyrazole-5-carboxamide], the midpoint of inhibition, the IC50, lay at 320 nM.

The molecule `Cc1cc(C#Cc2ccc(F)cc2)cnc1NC(=O)c1c(Cl)cnn1C[C@H]1CCCN(C(=O)OC(C)(C)C)C1` [Compound 368, tert-butyl (S)-3-((4-chloro-5-((5-((4-fluorophenyl)ethynyl)-3-methylpyridin-2-yl)carbamoyl)-1H-pyrazol-1-yl)methyl)piperidine-1-carboxylate] showed an IC50 of 940 nM.

As for `Cc1cc(C#Cc2ccccc2)cnc1NC(=O)c1c(Cl)cnn1C1CC2(C1)CN(C(=O)C(C)C)C2` [Compound 212, 4-chloro-1-(2-isobutyryl-2-azaspiro[3.3]heptan-6-yl)-N-(3-methyl-5-(phenylethynyl)pyridin-2-yl)-1H-pyrazole-5-carboxamide], the IC50 is 330 nM.

Regarding `Cn1nc(Cl)c(C(=O)Nc2ncc(C#Cc3ccccc3)cc2F)c1-c1ccc2c(cnn2C)c1` [Compound 372, 3-chloro-N-(3-fluoro-5-(phenylethynyl)pyridin-2-yl)-1-methyl-5-(1-methyl-1H-indazol-5-yl)-1H-pyrazole-4-carboxamide], the IC50 was determined as 1080 nM.

With `CC(C)(C)OC(=O)N[C@H]1C[C@H](n2ncc(Cl)c2C(=O)Nc2ncc(C#Cc3ccccc3)cc2F)C1` [Compound 214, tert-butyl (trans-3-(4-chloro-5-((3-fluoro-5-(phenylethynyl)pyridin-2-yl)carbamoyl)-1H-pyrazol-1-yl)cyclobutyl)carbamate], the half-inhibitory concentration (IC50) was determined as 330 nM.

Regarding `Cc1cc(C#Cc2ccccc2)cnc1NC(=O)c1c(Cl)cnn1CCC1CCCO1` (centres unmarked) [Compound 321, 4-chloro-N-(3-methyl-5-(phenylethynyl)pyridin-2-yl)-1-(2-(tetrahydrofuran-2-yl)ethyl)-1H-pyrazole-5-carboxamide], the IC50 is 630 nM.

In turn, `Cc1cc(C#Cc2ccccc2)cnc1NC(=O)c1c(Cl)cnn1C(C)CNC(=O)OC(C)(C)C` (centres unmarked) [Compound 239, tert-butyl (2-(4-chloro-5-((3-methyl-5-(phenylethynyl)pyridin-2-yl)carbamoyl)-1H-pyrazol-1-yl)propyl)carbamate] displayed an IC50 of 370 nM.

Take `CC(=O)N1CC2CC(C1)C2Cn1ncc(Cl)c1C(=O)Nc1ncc(C#Cc2ccccc2)cc1F` (centres unmarked) [Compound 326, 1-((3-acetyl-3-azabicyclo[3.1.1]heptan-6-yl)methyl)-4-chloro-N-(3-fluoro-5-(phenylethynyl)pyridin-2-yl)-1H-pyrazole-5-carboxamide]: it took 640 nM to reach half-maximal inhibition (IC50).

Staying with this assay, now noted: TREK-1 Thallium (Tl+) flux assay; values without footnote *12 are Method 1.
As for `Cc1cc(C#Cc2ccc(F)cc2)cnc1NC(=O)c1c(Cl)cnn1[C@H]1CC[C@@H](NC(=O)C2CC2)CC1` [Compound 165, 4-chloro-1-(cis-4-(cyclopropanecarboxamido)cyclohexyl)-N-(5-((4-fluorophenyl)ethynyl)-3-methylpyridin-2-yl)-1H-pyrazole-5-carboxamide], the IC50 was 260 nM.

In the case of `Cc1cc(C#Cc2ccccc2)cc(F)c1NC(=O)c1c(Cl)cnn1CCCC#N` [Compound 185, 4-chloro-1-(3-cyanopropyl)-N-(2-fluoro-6-methyl-4-(phenylethynyl)phenyl)-1H-pyrazole-5-carboxamide], inhibition was half-maximal at 290 nM (IC50).

The molecule `O=C(Nc1ncc(C#Cc2cccs2)cc1F)c1c(Cl)cnn1C1CCN(C(=O)C2CC2)CC1` [Compound 139, 4-chloro-1-(1-(cyclopropanecarbonyl)piperidin-4-yl)-N-(3-fluoro-5-(thiophen-2-ylethynyl)pyridin-2-yl)-1H-pyrazole-5-carboxamide] yielded an IC50 of 220 nM.

With `CC(=O)N1CC(n2ncc(Cl)c2C(=O)Nc2ncc(C#Cc3ccccc3)cc2C)C1` [Compound 122, 1-(1-acetylazetidin-3-yl)-4-chloro-N-(3-methyl-5-(phenylethynyl)pyridin-2-yl)-1H-pyrazole-5-carboxamide], inhibition was half-maximal at 210 nM (IC50).

In turn, `CC(C)C(=O)N1CCC(n2ncc(Cl)c2C(=O)Nc2ncc(C#Cc3cccs3)cc2F)CC1` [Compound 175, 4-chloro-N-(3-fluoro-5-(thiophen-2-ylethynyl)pyridin-2-yl)-1-(1-isobutyrylpiperidin-4-yl)-1H-pyrazole-5-carboxamide] displayed an IC50 of 270 nM.

`Cc1cc(C#Cc2cccs2)cnc1NC(=O)c1c(Cl)cnn1CC1CCN(C(=O)C2CC2)CC1` [Compound 57, 4-chloro-1-((1-(cyclopropanecarbonyl)piperidin-4-yl)methyl)-N-(3-methyl-5-(thiophen-2-ylethynyl)pyridin-2-yl)-1H-pyrazole-5-carboxamide] came in with an IC50 of 140 nM.

`Cc1cc(C#Cc2cccs2)cnc1NC(=O)c1c(Cl)cnn1[C@H]1C[C@@H]2CN(C(=O)C(C)C)C[C@@H]2C1` [Compound 187, 4-chloro-1-[(3aR,5s,6aS)-2-(2-methylpropanoyl)octahydrocyclopenta [c]pyrrol-5-yl]-N-{3-methyl-5-[(thiophen-2-yl)ethynyl]pyridin-2-yl}-1H-pyrazole-5-carboxamide] came in with an IC50 of 290 nM.

The molecule `Cc1cc(C#Cc2ccccc2)cnc1NC(=O)c1c(Cl)cnn1CCC1CCN(C(=O)C(C)C)CC1` [Compound 188, 4-chloro-1-(2-(1-isobutyrylpiperidin-4-yl)ethyl)-N-(3-methyl-5-(phenylethynyl)pyridin-2-yl)-1H-pyrazole-5-carboxamide] showed an IC50 of 290 nM.

On to `CC(=O)N[C@H]1C[C@@H](n2ncc(Cl)c2C(=O)Nc2ncc(C#Cc3ccccc3)cc2C)C1` [Compound 64, 1-(cis-3-acetamidocyclobutyl)-4-chloro-N-(3-methyl-5-(phenylethynyl)pyridin-2-yl)-1H-pyrazole-5-carboxamide], for which inhibition was half-maximal at 150 nM (IC50).

`CC(=O)N1CC[C@H](n2ncc(Cl)c2C(=O)Nc2ncc(C#Cc3ccccc3)cc2C)C[C@@H]1C` (single isomer, unassigned) [Compound 31, 1-[(2S,4S)-1-acetyl-2-methylpiperidin-4-yl]-4-chloro-N-[3-methyl-5-(phenylethynyl)pyridin-2-yl]-1H-pyrazole-5-carboxamide or 1-[(2R,4R)-1-acetyl-2-methylpiperidin-4-yl]-4-chloro-N-[3-methyl-5-(phenylethynyl)pyridin-2-yl]-1H-pyrazole-5-carboxamide] had an IC50 of 100 nM.

Staying with this assay, now noted: read-out: Tl^+ Assay % inhibition at 30 uM (Minus value indicates activation of TREK-1); at 30 uM; CHO-K1 cells stably expressing human TREK-1; minus = activation.
On to `CC(=O)N1CCC(CCn2cc(Cl)c(C(=O)Nc3ncc(C#Cc4ccccc4F)cc3C)n2)CC1` [Compound 445, 1-(2-(1-acetylpiperidin-4-yl)ethyl)-4-chloro-N-(5-((2-fluorophenyl)ethynyl)-3-methylpyridin-2-yl)-1H-pyrazole-3-carboxamide], for which the inhibition at 30 µM is -115%.

For `Cc1cc(C#Cc2ccc(F)cc2)cnc1NC(=O)c1nn(CCC2CCN(C(=O)C(C)C)CC2)cc1Cl` [Compound 446, 4-chloro-N-(5-((4-fluorophenyl)ethynyl)-3-methylpyridin-2-yl)-1-(2-(1-isobutyrylpiperidin-4-yl)ethyl)-1H-pyrazole-3-carboxamide], the inhibition at 30 µM is -108%.

Usually IC50 stands for the midpoint of a concentration-inhibition curve. A low value points to inhibition by little substance. Usually inhibition stands for the change of the read-out against control, counted positive when it falls.

The values are drawn from patent publication US20240182445A1 (ONO PHARMACEUTICAL CO., LTD., priority 2019, published 2024).
